The conditions of series [1]: mouse, in vivo.
The test system of a further series is p-HER2. Briefly: Western blot of total and phosphorylated HER2, BT-474. The series is classed as cell-based. The conditions noted are these: BT-474 cells, 1.5 μM, 36 h.
For series [2] the following is noted: human serum, HPLC AUC vs time.
The conditions of series [3]: cited from earlier work.
For another series, the system named is MCF-7 cells. Briefly: Confocal microscopy binding, MCF-7 cells. The series is classed as cell-based. The settings on record: 0.5 μM, 30 min.

For `N=C(N)NCCC[C@H]1NC(=O)C[C@H](c2cccc3ccccc23)NC(=O)[C@@H](Cc2ccccc2)NC(=O)[C@@H](CC(=O)O)NC(=O)[C@H]2CCCN2C(=O)[C@@H]2CCCN2C(=O)[C@@H](CCCNC(=N)N)NC(=O)C[C@H](c2cccc3ccccc23)NC(=O)[C@@H](Cc2ccccc2)NC(=O)[C@@H](CC(=O)O)NC1=O` [compound 32, Cyclo(Ppdf-(R)Anapa-rdf-(R)Anapa-r], the “Compound detected after 12 h compared to the 15 min” value in series [1] is on record as approximately 70%. In the series on p-HER2, the “Level of p-HER2 (Western blot)” value is reported as “decreased the level of p-HER2” and the “Total-HER2 protein levels (Western blot)” value is on record as “did not show any significant effect”. Besides, in series [2], the “Time stable in serum” value worked out at 48 h.
As to “Cyclo(PpR-((R) Anapa)FDDF-((R) Anapa)R [compound 18]”, in series [3], the “Stability in serum in vitro” value was “more than 48 h”.
For `N=C(N)NCCC[C@@H]1NC(=O)[C@H]2CCCN2C(=O)[C@@H]2CCCN2C(=O)[C@H](CCCCNC(=O)c2ccc3c(c2)C2(OC3=O)c3ccc(O)cc3Oc3cc(O)ccc32)NC(=O)C[C@H](c2cccc3ccccc23)NC(=O)[C@H](Cc2ccccc2)NC(=O)[C@H](CC(=O)O)NC(=O)[C@H](CC(=O)O)NC(=O)[C@H](Cc2ccccc2)NC(=O)C[C@H](c2cccc3ccccc23)NC1=O` [compound 44, Cyclo(PpR-(R)Anapa-FDDF-(R)Anapa-K-(6-FAM)], in the series on MCF-7 cells, the “Binding to cells by confocal microscopy (green fluorescence)” value is listed as “does not bind significantly”.

The values above are taken from article PMC6284401 (Journal of peptide science : an official publication of the …, 2018).
